Experimental data from patent US6337348B1, “Oxy-vanadium (iv) complexes having spermicidal activity” (Parker Hughes Institute, priority 1998, dated 2002).

Columns and labels:
Format in all cases: cell-based
[1] = test system: human sperm; experiment: Sperm immobilization assay (SIA), motility by CASA; settings: for EC50: read-out: EC50 (concentration that decreases the proportion of motile sperm by 50%), 3 hours incubation at 37° C., BWW-0.3% BSA, serial 2-fold dilutions 250 μM to 1.9 μM, mean of two experiments
Protocol: To evaluate the spermicidal effects of complexes of oxovanadium (IV), VO(phen), VO(phen)2, VO(Me2—phen), VO(Me2—phen)2, VO(Cl—phen), VO(Cl—phen)2], VO(bipy), VO(bipy)2, VO(Me2—bipy), VO(Me2—bipy)2, and VO(Br,OH—acph)2, a highly motile fraction of pooled donor sperm (N=5) was prepared by discontinuous (90−45%). Percoll gradient (Conception Technologies, San Diego, Calif.) centrifugation and the “swim-up” method as described previously (Aitken et al., 1989, Biol. Reprod. 40:183-197). All donor specimens were obtained after informed consent and in compliance with the guidelines of the Hughes Institutional Review Board. Motile sperm (≳10×10^6/ml) were suspended in 1 ml of Biggers, Whitten, and Whittingham's medium (BWW) containing 0.3% BSA (fraction V; Sigma Chemical Co., St. Louis, Mo.) in the presence and absence of serial 2-fold dilutions of test substance (250 μM−1.9 μM) in 0.25% dimethyl sulfoxide (DMSO). For each experiment, fresh stock solutions (100 mM) of vanadium compounds were prepared in DMSO. A corresponding volume of DMSO (0.25%) was added to control sperm suspension. After 3 hours of incubation at 37° C., the percentage of motile sperm was evaluated by computer-assisted sperm motion analysis (CASA) as described previously (Aitken et al., 1989, Supra). The percentages of motilities were compared with those of sham-treated control suspensions of motile sperm.
For CASA, 4 μl each of sperm suspension was loaded into two 20 μm Microcell chambers placed onto a counting chamber at 37° C. At least 5-8 fields per chamber were scanned for analysis using a Hamilton Thorne Integrated Visual Optical System (IVOS) version 10 instrument (Hamilton Thorne Research Inc., Danvers, Mass.). Each field was recorded for 30 seconds. The Hamilton Thorne computer calibrations were set at 30 frames at a frame rate of 30 images/seconds. Other settings were as follows: minimum contrast 8; minimum size 6; low-size gate, 1.0; high-size gate,2.9; low-intensity gate, 0.6; high-intensity gate, 1.4; phase-contrast illumination; low path velocity at 10 μm/seconds and threshold straightness at 80%; magnification factor, 1.95. The performance of the analyzer was periodically checked using the playback function.
Results for the various numerical sperm functional parameters are presented as mean±standard deviation (SD) values. Comparison between oxovanadium (IV) complex-treated and control sperm relative to sperm motility parameters and apoptosis were performed using paired, two-tailed Student's T-test. A p value of <0.05 was considered significant.

[2] = test system: human sperm; experiment: Flow cytometric quantitation of sperm acrosome reaction (anti-CD46 mAb binding); settings: tested at 100 μM, 3 hours, 37° C., mean of two experiments
Protocol: In experiments designed to assess the comparative effects of oxovanadium (IV) complexes and N-9 on sperm acrosome reaction, motile fractions of sperm (10^7/ml) prepared from a single donor were incubated in 1 ml of BWW−0.3% BSA in the presence of 100 μM each of the vanadocene complexes, VO(phen), VO(phen)2, VO(Me2—phen), VO(Me2—phen)2, VO(Cl—phen), VO(Cl—phen)2, VO(bipy), VO(bipy)2, VO(Me2—bipy), VO(Me2—bipy)2, and VO(Br,OH—acph)2 in 0.1% DMSO, N-9, or DMSO (0.1%) alone at 37° C. After 3 hours, 5 μg/ml of purified, phycoerythrin (PE)-conjugated murine anti-CD46 monoclonal antibody (mAb; clone 122-2; Research Diagnostics, Flanders, N.J.) was added and the sperm suspensions incubated for an additional 30 minutes. The suspensions was washed in Tyrode's salt solution (Sigma) containing 1% BSA (1% TBSA) and the percentage of CD46-positive sperm were analyzed by flow cytometry using a FACS Vantage flow cytometer (Becton Dickinson, Mountain View, Calif.), as described previously (DeCruz et al., 1996, Biol Reprod. 54:1217-1228; DeCruz et al., 1992, Fertil. Seril., 58:633-636). Two separate experiments were performed to quantitate acrosomal loss following exposure of sperm to oxovanadium (IV) complexes.

[3] = test system: human sperm; experiment: FITC-Annexin V surface binding flow cytometry; settings: 100 μM, 12 hours, 37° C.
Protocol: In order to examine the expression of phosphatidyl serine on the sperm surface following oxovanadium (IV) complex exposure, surface binding of FITC-Annexin V was evaluated by flow cyotometry as described in Vermes et al., 1995, J. Immunol. Meth., […]:39-51. One ml aliquots of highly motile sperm (10^7) in triplicate were incubated in BWW−0.3% BSA at 37° C. for 12 hours with and without 100 μM of each of the oxovanadium (IV) complexes VO(phen), VO(phen)2, VO(Me2—phen), VO(Me2—phen)2, VO(Cl—phen), VO(Cl—phen)2, VO(bipy), VO(bipy)2, VO(Me2—bipy), VO(Me2—bipy)2, and VO(Br,OH—acph)2 in 0.1% DMSO. After exposure to these complexes, sperm were washed with 1% Tyrode's salt solution containing 1% BSA (1% TBSA), and the pellets were resuspended in the same medium. The sperm suspension was reacted for 30 minutes at room temperature with 6 μg/ml of FITC-conjugated recombinant human Annexin V (Caltag Laboratories, San Francisco, Calif.). After two washes in Tyrode's salt solution, sperm were resuspended in 1% TBSA containing 1 μg/ml propidium iodide (PI) and analyzed for surface-bound Annexin V and PI-permeability by quantitative flow cytometry using an argon laser for excitation of fluorescence. Annexin V and PI binding were simultaneously measured in oxovanadium (IV) complex-exposed and control sperm as described previously (de Lamirande et al., 1993, Fertil Seril 59:1291-1295). The percentages of sperm positive for Annexin V and PI were determined using the cutoff signals for membrane-intact motile sperm. Two separate experiments were performed to assess the surface expression of phosphatidyl serine following exposure of sperm to oxovanadium (IV) complexes.

| Molecule | fold more potent than N-9 (spermicidal activity) ([1]; identical experimental conditions) [fold] | EC50 [1] [µM] | Anti-CD46 positive sperm (%) [2] [%] | Anti-CD46 positive sperm (%) ([2]; listed as VO(Cl—phen)2) | Annexin V positive sperm (%) [3] [%] | Annexin V positive sperm (%) ([3]; listed as VO(Cl—phen)2) | Anti-CD46 positive sperm (%) ([2]; listed as VO(Br,OH—acph)2) |
| --- | --- | --- | --- | --- | --- | --- | --- |
| Clc1cc2cccnc2c2ncccc12.Clc1cc2cccnc2c2ncccc12.O.O=S(=O)([O-])[O-].[O]=[V+2] [VO(Cl-phen)2, (aqua)bis(5-chloro-1,10-phenanthroline)oxovanadium (IV) sulfate] | 14 | 5.5 | 21.5 | 21.5 | 99 | 99 |  |
| Clc1cc2cccnc2c2ncccc12.O.O.O=S(=O)([O-])[O-].[O]=[V+2] [VO(Cl-phen), (diaqua)(5-chloro-1,10-phenanthroline)oxovanadium (IV) sulfate] |  | 39.1 | 11.2 |  | 90 |  |  |
| Cc1ccnc2c1ccc1c(C)ccnc12.Cc1ccnc2c1ccc1c(C)ccnc12.O.O=S(=O)([O-])[O-].[O-2].[V+4] [VO(Me2-phen)2, (aqua)bis(4,7-dimethyl-1,10-phenanthroline)oxovanadium (IV) sulfate] |  | 47.9 | 11.7 |  | 17 |  |  |
| Cc1ccnc2c1ccc1c(C)ccnc12.O.O.O=S(=O)([O-])[O-].[O]=[V+2] [VO(Me2-phen), (diaqua)(4,7-dimethyl-1,10-phenanthroline)oxovanadium (IV) sulfate] |  | 20.5 | 14.0 |  | 96 |  |  |
| O.O=S(=O)([O-])[O-].[O-2].[V+4].c1ccc(-c2ccccn2)nc1.c1ccc(-c2ccccn2)nc1 [VO(bipy)2, (aqua)bis(2,2′-bipyridyl)oxovanadium (IV) sulfate] |  | 35.3 | 4.7 |  | 26 |  |  |
| O.O.O=S(=O)([O-])[O-].[O]=[V+2].c1ccc(-c2ccccn2)nc1 [VO(bipy), (diaqua)(2,2′-bipyridyl)oxovanadium (IV) sulfate] |  | 118 | 6.1 |  | 36 |  |  |
| O.O=S(=O)([O-])[O-].[O]=[V+2].c1cnc2c(c1)ccc1cccnc12.c1cnc2c(c1)ccc1cccnc12 [VO(phen)2, (aqua)bis(1,10-phenanthroline)oxovanadium (IV) sulfate] |  | 6.5 | 9.9 |  | 98 |  |  |
| O.O.O=S(=O)([O-])[O-].[O]=[V+2].c1cnc2c(c1)ccc1cccnc12 [VO(phen), (diaqua)(1,10-phenanthroline)oxovanadium (IV) sulfate] |  | 37 | 9.7 |  | 97 |  |  |
| (aqua)bis(4,4′-dimethyl-2,2′-bipyridyl)oxovanadium (IV) sulfate [VO(Me2-bipy)2] |  | 72.5 | 3.2 |  | 78 |  |  |
| (diaqua)(4,4′-dimethyl-2,2′-bipyridyl)oxovanadium (IV) sulfate [VO(Me2-bipy)] |  | 83 | 6.4 |  | 47 |  |  |
| bis(5′-bromo-2′-hydroxyacetophenone)oxovanadium (IV) [VO(Br,OH-acph)2] |  | 13.4 | 24.3 |  | 95 |  | 24.3 |
